EP2103618A1, “Novel ansamitocin derivatives” (Leibniz Universität Hannover, priority 2008, dated 2009)
≈ marks a conversion by molar mass, not a printed value.

Experiments:
Type in all cases: cell-based
[1] = system: A-431; assay: Growth inhibition of cultured human tumor cell lines in microtiter plates, MTT assay; details: A-431, Epidermoid carcinoma, 5 days; for IC50: Homo sapiens, 120 h, read-out: Antiproliferative activity IC50
Procedure: (§1) For the detailed evaluation of their biological profile as anti-cancer agents, cultured human tumor cell lines were treated with the new ansamitocin derivatives. In particular, the 19-fluoro-20-demethoxyansamitocin P3 (F-A), 19-chloro-20-demethoxyansamitocin P3 (Cl-A), 19-bromo-20-demethoxyansamitocin P3 (Br-A), and the 20-demethoxy-19-vinylansamitocin P3 (VI) were tested for their inhibitory effect on cell growth of different cell lines, namely KB-3-1, U-937, PC-3, SK-OV-3, A-498, A-431, and A-549, in comparison to natural biosynthesis product Ansamitocin P-3 (AP-3). Growth inhibition was measured in microtiter plates. 60 µl of serial dilutions of the test compounds were added to aliquots of 120 µl of the suspended cells (50000/ml). After 5 days the growth was determined using a MTT assay, except for U-937, where the WST-1 assay from Roche was employed.

[2] = system: A-498; assay: as above; details: A-498, Kidney carcinoma, 5 days; for IC50: Homo sapiens, A498, 120 h, read-out: Antiproliferative activity IC50
Procedure: as §1

[3] = system: A-549; assay: as above; details: A-549, Lung carcinoma, 5 days; for IC50: Homo sapiens, A549, 120 h, read-out: Antiproliferative activity IC50
Procedure: as §1

[4] = system: KB-3-1; assay: as above; details: KB-3-1, Cervix carcinoma, 5 days; for IC50: Homo sapiens, 120 h, read-out: Antiproliferative activity IC50
Procedure: as §1

[5] = system: PC-3; assay: as above; details: PC-3, Prostate carcinoma, 5 days; for IC50: Homo sapiens, 120 h, read-out: Antiproliferative activity IC50
Procedure: as §1

[6] = system: SK-OV-3; assay: as above; details: SK-OV-3, Ovarian carcinoma, 5 days; for IC50: Homo sapiens, 120 h, read-out: Antiproliferative activity IC50
Procedure: as §1

[7] = system: U-937; assay: Growth inhibition of cultured human tumor cell lines in microtiter plates, WST-1 assay; details: U-937, Lymphoma, 5 days; for IC50: Homo sapiens, 120 h, read-out: Antiproliferative activity IC50
Procedure: as §1

[8] = system: cultured human tumor cell lines; assay: Growth inhibition, statements across the whole panel of cell lines; details: for activity among the compounds tested: in general, across the cell lines, result in words
Procedure: as §1

CO[C@@H]1/C=C/C=C(\C)Cc2ccc(Br)c(c2)N(C)C(=O)C[C@H](OC(=O)C(C)C)[C@]2(C)O[C@H]2[C@H](C)[C@@H]2C[C@@]1(O)NC(=O)O2 [Br-A, 19-bromo-20-demethoxyansamitocin P3]
Antiproliferative activity IC50 [1]: 0.1 ng/mL
Antiproliferative activity IC50 [2]: 4 ng/mL
Antiproliferative activity IC50 [3]: 0.3 ng/mL
Antiproliferative activity IC50 [4]: 0.3 ng/mL
Antiproliferative activity IC50 [5]: 0.1 ng/mL
Antiproliferative activity IC50 [6]: 0.05 ng/mL
Antiproliferative activity IC50 [7]: 0.03 ng/mL

CO[C@@H]1/C=C/C=C(\C)Cc2ccc(F)c(c2)N(C)C(=O)C[C@H](OC(=O)C(C)C)[C@]2(C)O[C@H]2[C@H](C)[C@@H]2C[C@@]1(O)NC(=O)O2 [F-A, 19-fluoro-20-demethoxyansamitocin P3]
IC50 [1]: 0.04 ng/mL (≈ 0.0679 nM)
IC50 [2]: 2 ng/mL (≈ 3.4 nM)
IC50 [3]: 0.11 ng/mL (≈ 0.187 nM)
IC50 [4]: 0.18 ng/mL (≈ 0.306 nM)
IC50 [5]: 0.035 ng/mL (≈ 0.0595 nM)
IC50 [6]: 0.035 ng/mL (≈ 0.0595 nM)
IC50 [7]: 0.01 ng/mL (≈ 0.017 nM)

19-fluoro-20-demethoxyansamitocin P3 [F-A]
activity among the compounds tested [8]: most active

COc1cc2cc(c1Cl)N(C)C(=O)C[C@H](OC(=O)C(C)C)[C@]1(C)O[C@H]1[C@H](C)[C@@H]1C[C@@](O)(NC(=O)O1)[C@H](OC)/C=C/C=C(\C)C2 [AP-3, Ansamitocin P-3, reference compound]
IC50 [1]: 0.05 ng/mL (≈ 0.0787 nM)
IC50 [2]: 1.1 ng/mL (≈ 1.73 nM)
IC50 [3]: 0.1 ng/mL (≈ 0.157 nM)
IC50 [4]: 0.11 ng/mL (≈ 0.173 nM)
IC50 [5]: 0.035 ng/mL (≈ 0.0551 nM)
IC50 [6]: 0.03 ng/mL (≈ 0.0472 nM)
IC50 [7]: 0.0035 ng/mL (≈ 0.00551 nM)

20-demethoxy-19-vinylansamitocin P3
activity among the compounds tested [8]: most active

CO[C@@H]1/C=C/C=C(\C)Cc2ccc(Cl)c(c2)N(C)C(=O)C[C@H](OC(=O)C(C)C)[C@]2(C)O[C@H]2[C@H](C)[C@@H]2C[C@@]1(O)NC(=O)O2 [Cl-A, 19-chloro-20-demethoxyansamitocin P3]
IC50 [1]: 0.15 ng/mL (≈ 0.248 nM)
IC50 [2]: 3 ng/mL (≈ 4.96 nM)
IC50 [3]: 0.4 ng/mL (≈ 0.661 nM)
IC50 [4]: 0.35 ng/mL (≈ 0.578 nM)
IC50 [5]: 0.12 ng/mL (≈ 0.198 nM)
IC50 [6]: 0.1 ng/mL (≈ 0.165 nM)
IC50 [7]: 0.035 ng/mL (≈ 0.0578 nM)
activities weaker than that of the natural AP-3 [8]: 3-50 times
